Test results as given in US11408886B2, “Method of screening for novel therapeutic targets to develop therapeutic agents for colon cancer and prognostic biomarkers for colon cancer treatment screened using the same” (KOREA INSTITUTE OF SCIENCE AND TECHNOLOGY, priority 2018, dated 2022).

Legend:
colon cancer cells = assay: Protein expression level changes after treatment with FAK inhibitors (in-solution digestion, protein identification, expression ratios, FIG. 14); assay type: cell-based, human; parameters: dose or concentration left out as unconfirmed; details: 2 hours (FIG. 14)
Experimental: A human colon cancer cell line, HCT-116, was cultured using an RPMI-1640 medium containing 10% (v/v) heat-inactivated FBS and 1% (v/v) penicillin/streptomycin in a 60 mm plastic culture plate (Corning Life Science, Acton, Mass., USA) until its cell density reached 2×10^6 cells/cm^2. The culture was performed in a humidified incubator of 5% CO2 at 37° C. The cells were starved for 24 hours and washed with serum-free medium. FGF signaling was amplified by adding 10 ng/mL of EGF, IGF, PMA, and PDGF, followed by further incubation for 2 hours. Thereafter, the cells were harvested and collected by centrifugation at a speed of 300 g for 5 minutes. Cell membranes were disrupted using a sonicator, and centrifuged at a speed of 13,000 g for 30 minutes to collect lysed intracellular proteins. Further, to compare the amounts of expressed FAK-binding proteins by using defactinib (VS-6063) and PF-573228, which are FAK inhibitors, independently or simultaneously, normal intestinal epidermal cells and colon cancer cells were each treated with FAK inhibitors at three different final concentrations […], 1 mM, and 10 mM (2 hours), and then cells were collected and subjected to in-solution digestion to isolate and identify the proteins.

[1] = system: colon cancer cell line HCT-116; assay: Western blotting / immunoprecipitation of FAK and FAK-bound protein complexes after treatment with FAK signaling substances; assay type: cell-based, human; details: HCT-116, 10 ng/mL, 2 hours, compared with control group not treated with the signaling substances (FIG. 7)
Experimental: A human colon cancer cell line, HCT-116, was cultured using an RPMI-1640 medium containing 10% (v/v) heat-inactivated FBS and 1% (v/v) penicillin/streptomycin in a 60 mm plastic culture plate (Corning Life Science, Acton, Mass., USA) until its cell density reached 2×10^6 cells/cm^2. The culture was performed in a humidified incubator of 5% CO2 at 37° C. The cells were starved for 24 hours and washed with serum-free medium. FGF signaling was amplified by adding 10 ng/mL of EGF, IGF, PMA, and PDGF, followed by further incubation for 2 hours. Thereafter, the cells were harvested and collected by centrifugation at a speed of 300 g for 5 minutes. Cell membranes were disrupted using a sonicator, and centrifuged at a speed of 13,000 g for 30 minutes to collect lysed intracellular proteins. Further, to compare the amounts of expressed FAK-binding proteins by using defactinib (VS-6063) and PF-573228, which are FAK inhibitors, independently or simultaneously, normal intestinal epidermal cells and colon cancer cells were each treated with FAK inhibitors at three different final concentrations of 0.1 mM, 1 mM, and 10 mM (2 hours), and then cells were collected and subjected to in-solution digestion to isolate and identify the proteins.
The concentrations of the collected proteins were determined using a bicinchoninic acid (BCA) protein assay kit (Thermo Fisher Scientific, Waltham, Mass., USA), and the remaining samples were separated by 10% SDS-PAGE (sodium dodecyl sulfate-polyacrylamide gel electrophoresis), and transferred to a nitrocellulose membrane (Pall Corporation, Pensacola, Fla., USA) to perform Western blotting. The membrane was blocked with PBS containing 0.2% TWEEN 20 and 5% non-fat dry milk for about 2 hours, and blotting was performed using anti-phospho-FAK (1:1000) antibody and anti-β-actin (1:5000) antibody overnight. HRP-conjugated goat anti-rabbit IgG diluted 1:5000 was used as a secondary antibody, and fluorescence images were scanned using an Ez-capture MG (ATTO, NY, USA) instrument. For IP, 1.5 mg of the cell lysate was prepared and incubated overnight with 20 μL of agarose beads preblocked (at 4° C. for 2 hours) with PBS containing 1% bovine serum albumin (BSA), wherein 10 μL of FAK antibody (1:500) was immobilized to the agarose beads. To remove nonspecific binding, the beads were washed with 600 μL of PBS containing 0.1% TWEEN 20 twice, and FAK protein and proteins bound thereto were crosslinked using 2 mM of dithiobis(succinimidyl propionate) (DSP) and dithiobismaleimidoethane (DTME). The crosslinking agents were dissolved in 20 mM DMSO and diluted with PBS (pH 7.4), and then used in the reaction. Washing was performed five times using 600 μL of a 0.1% solution of PBS-Tween 20 and further performed using PBS twice. […]

Compound | complexes of the FAK protein and the proteins specifically bound thereto [1] | further results
CS(=O)(=O)c1cccc(CNc2nc(Nc3ccc4c(c3)CCC(=O)N4)ncc2C(F)(F)F)c1 [PF-573228] | – | ELAVL1 expression level (colon cancer cells): statistically significant reduction; SYNE1 expression level (colon cancer cells): statistically significant reduction; ZYX expression level (colon cancer cells): statistically significant reduction; ARFGEF expression level (colon cancer cells; reduction only with PF-573228): significant reduction
CCCCCCCCCCCCCC(=O)O[C@@H]1[C@@H](C)[C@@]2(O)[C@@H](C=C(CO)C[C@]3(O)C(=O)C(C)=C[C@@H]23)[C@@H]2C(C)(C)[C@]12OC(C)=O [PMA, phorbol 12-myristate 13-acetate] | increased two-fold or more | –
hIGF-1: human insulin-like growth factor-1, FAK signaling substance | increased two-fold or more | –
PDGF | increased two-fold or more | –
hEGF: human epidermal growth factor, FAK signaling substance | increased two-fold or more | –
